From patent US20240132431A1, “METHOD FOR ALKYLATING ACIDIC FUNCTIONAL GROUP” (Chugai Seiyaku Kabushiki Kaisha, priority 2021, published 2024)

Target: T1, Bcl-2 protein (Recombinant Human Bcl-2 Protein) (Homo sapiens, UniProt P10415)
T1 construct: purchased Novus NBP2-34889
Test: Binding evaluation of mixture library compounds to Bcl-2 using AS-MS (affinity selection mass spectrometry)
How it was run: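 Readout is ASMS Ratio (%), (A−C)/B×100, from reversed-phase LC/MS of SEC-passed extracts, with protein-free unfiltered standard (B) and protein-free SEC blank (C). Recombinant human Bcl-2 at 20 μM final met ~1200 pooled compounds at […] each for 1 h, 23° C., dark, in Tris-HCl pH 7.4 buffer.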

T1 sequence (P10415 whole entry): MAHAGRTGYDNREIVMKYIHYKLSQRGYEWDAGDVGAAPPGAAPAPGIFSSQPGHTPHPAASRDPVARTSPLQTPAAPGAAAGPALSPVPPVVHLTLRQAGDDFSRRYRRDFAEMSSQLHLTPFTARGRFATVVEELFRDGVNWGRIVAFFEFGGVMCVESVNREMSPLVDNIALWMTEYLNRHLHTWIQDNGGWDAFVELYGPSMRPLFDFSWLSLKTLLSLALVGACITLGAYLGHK

| Compound | ASMS ratio (%) (n = 1) | ASMS ratio (%) (n = 2) |
| --- | --- | --- |
| CCOc1cncc(-c2ccc(CN3CCN(c4ccc(C(=O)NS(=O)(=O)C(C)(C)C)cc4)CC3)c(CC)c2)c1 [B2L050-01] | 0.0% | 0.0% |
| CCOc1cccc(-c2ccc(CN3CCN(c4ccc(C(=O)NS(=O)(=O)C(C)(C)C)cc4)CC3)cc2F)c1 [B2L051-01, N-tert-Butylsulfonyl-4-[4-[[4-(3-ethoxyphenyl)-3-fluorophenyl]methyl]piperazin-1-yl]benzamide] | 0.0% | 0.0% |
| CCOc1cncc(-c2ccc(CN3CCN(c4ccc(C(=O)NS(=O)(=O)C(C)(C)C)cc4)CC3)cc2F)c1 [B2L052-01] | 2.7% | 1.0% |
| CCOc1cccc(-c2ccc(CN3CCN(c4ccc(C(=O)NS(=O)(=O)C(C)(C)C)cc4)CC3)c(OC)c2)c1 [B2L053-01] | 0.0% | 0.0% |
| CCOc1cncc(-c2ccc(CN3CCN(c4ccc(C(=O)NS(=O)(=O)C(C)(C)C)cc4)CC3)c(OC)c2)c1 [B2L054-01] | 0.0% | 0.0% |
| CCOc1cccc(-c2cc(CN3CCN(c4ccc(C(=O)NS(=O)(=O)C(C)(C)C)cc4)CC3)cc(OCC)c2)c1 [B2L055-01, N-tert-Butylsulfonyl-4-[4-[[3-ethoxy-5-(3-ethoxyphenyl)phenyl]methyl]piperazin-1-yl]benzamide] | 0.0% | 0.0% |
| CCOc1cncc(-c2cc(CN3CCN(c4ccc(C(=O)NS(=O)(=O)C(C)(C)C)cc4)CC3)cc(OCC)c2)c1 [B2L056-01] | 0.0% | 0.0% |
| CCOc1cccc(-c2cc(CN3CCN(c4ccc(C(=O)NS(=O)(=O)C(C)(C)C)cc4)CC3)cc(OC(C)C)c2)c1 [B2L057-01, N-tert-Butylsulfonyl-4-[4-[[3-(3-ethoxyphenyl)-5-propan-2-yloxyphenyl]methyl]piperazin-1-yl]benzamide] | 0.0% | 0.0% |
| CCOc1cncc(-c2cc(CN3CCN(c4ccc(C(=O)NS(=O)(=O)C(C)(C)C)cc4)CC3)cc(OC(C)C)c2)c1 [B2L058-01] | 0.0% | 0.0% |
| CCOc1cccc(-c2cc(OC)c(CN3CCN(c4ccc(C(=O)NS(=O)(=O)C(C)(C)C)cc4)CC3)c(OC)c2)c1 [B2L059-01, N-tert-Butylsulfonyl-4-[4-[[4-(3-ethoxyphenyl)-2,6-dimethoxyphenyl]methyl]piperazin-1-yl]benzamide] | 0.0% | 0.0% |
| CCOc1cncc(-c2cc(OC)c(CN3CCN(c4ccc(C(=O)NS(=O)(=O)C(C)(C)C)cc4)CC3)c(OC)c2)c1 [B2L060-01, N-tert-Butylsulfonyl-4-[4-[[4-(5-ethoxypyridin-3-yl)-2,6-dimethoxyphenyl]methyl]piperazin-1-yl]benzamide] | – | 0.0% |
| CCOc1cccc(-c2cc(CN3CCN(c4ccc(C(=O)NS(=O)(=O)C(C)(C)C)cc4)CC3)cc(C(F)(F)F)c2)c1 [B2L061-01, N-tert-Butylsulfonyl-4-[4-[[3-(3-ethoxyphenyl)-5-(trifluoromethyl)phenyl]methyl]piperazin-1-yl]benzamide] | 4.6% | −11.1% |
| CCOc1cncc(-c2cc(CN3CCN(c4ccc(C(=O)NS(=O)(=O)C(C)(C)C)cc4)CC3)cc(C(F)(F)F)c2)c1 [B2L062-01, N-tert-Butylsulfonyl-4-[4-[[3-(5-ethoxypyridin-3-yl)-5-(trifluoromethyl)phenyl]methyl]piperazin-1-yl]benzamide] | 0.0% | 0.0% |
| CCOc1cccc(-c2cc(CN3CCN(c4ccc(C(=O)NS(=O)(=O)C(C)(C)C)cc4)CC3)cc(OC(F)(F)F)c2)c1 [B2L063-01, N-tert-Butylsulfonyl-4-[4-[[3-(3-ethoxyphenyl)-5-(trifluoromethoxy)phenyl]methyl]piperazin-1-yl]benzamide] | 0.0% | 0.0% |
| CCOc1cncc(-c2cc(CN3CCN(c4ccc(C(=O)NS(=O)(=O)C(C)(C)C)cc4)CC3)cc(OC(F)(F)F)c2)c1 [B2L064-01, N-tert-Butylsulfonyl-4-[4-[[3-(5-ethoxypyridin-3-yl)-5-(trifluoromethoxy)phenyl]methyl]piperazin-1-yl]benzamide] | 0.0% | 0.0% |
| CCOc1cccc(-c2csc(CN3CCN(c4ccc(C(=O)NS(=O)(=O)C(C)(C)C)cc4)CC3)c2)c1 [B2L067-01, N-tert-Butylsulfonyl-4-[4-[[4-(3-ethoxyphenyl)thiophen-2-yl]methyl]piperazin-1-yl]benzamide] | 0.0% | 0.0% |

| Compound | ASMS ratio (%) (n = 1) | ASMS ratio (%) (n = 2) |
| --- | --- | --- |
| CCOc1cncc(-c2csc(CN3CCN(c4ccc(C(=O)NS(=O)(=O)C(C)(C)C)cc4)CC3)c2)c1 [B2L068-01, N-tert-Butylsulfonyl-4-[4-[[4-(5-ethoxypyridin-3-yl)thiophen-2-yl]methyl]piperazin-1-yl]benzamide] | 0.0% | 0.0% |
| CCOc1cccc(C#Cc2ccccc2CN2CCN(c3ccc(C(=O)NS(=O)(=O)C(C)(C)C)cc3)CC2)c1 [B2L069-01, N-tert-Butylsulfonyl-4-[4-[[2-[2-(3-ethoxyphenyl)ethynyl]phenyl]methyl]piperazin-1-yl]benzamide] | 0.0% | 0.0% |
| CCOc1cncc(C#Cc2ccccc2CN2CCN(c3ccc(C(=O)NS(=O)(=O)C(C)(C)C)cc3)CC2)c1 [B2L070-01, N-tert-Butylsulfonyl-4-[4-[[2-[2-(5-ethoxypyridin-3-yl)ethynyl]phenyl]methyl]piperazin-1-yl]benzamide] | 4.9% | −4.2% |
| CCOc1cccc(-c2ccccc2CN2CCN(c3ccc(C(=O)NS(=O)(=O)C(C)(C)C)nn3)CC2)c1 [B2L071-01, N-tert-Butylsulfonyl-6-[4-[[2-(3-ethoxyphenyl)phenyl]methyl]piperazin-1-yl]pyridazine-3-carboxamide] | 1.2% | 0.0% |
| CCOc1cncc(-c2ccccc2CN2CCN(c3ccc(C(=O)NS(=O)(=O)C(C)(C)C)nn3)CC2)c1 [B2L072-01, N-tert-Butylsulfonyl-6-[4-[[2-(5-ethoxypyridin-3-yl)phenyl]methyl]piperazin-1-yl]pyridazine-3-carboxamide] | −10.7% | 8.3% |
| CCOc1cccc(-c2ccc(CN3CCN(c4ccc(C(=O)NS(=O)(=O)C(C)(C)C)nn4)CC3)cc2C)c1 [B2L073-01, N-tert-Butylsulfonyl-6-[4-[[4-(3-ethoxyphenyl)-3-methylphenyl]methyl]piperazin-1-yl]pyridazine-3-carboxamide] | 0.0% | 0.0% |
| CCOc1cncc(-c2ccc(CN3CCN(c4ccc(C(=O)NS(=O)(=O)C(C)(C)C)nn4)CC3)cc2C)c1 [B2L074-01, N-tert-Butylsulfonyl-6-[4-[[4-(5-ethoxypyridin-3-yl)-3-methylphenyl]methyl]piperazin-1-yl]pyridazine-3-carboxamide] | −1.0% | 1.4% |
| CCOc1cccc(-c2ccc(CN3CCN(c4ccc(C(=O)NS(=O)(=O)C(C)(C)C)nn4)CC3)c(CC)c2)c1 [B2L075-01, N-tert-Butylsulfonyl-6-[4-[[4-(3-ethoxyphenyl)-2-ethylphenyl]methyl]piperazin-1-yl]pyridazine-3-carboxamide] | 0.0% | 33.9% |
| CCOc1cncc(-c2ccc(CN3CCN(c4ccc(C(=O)NS(=O)(=O)C(C)(C)C)nn4)CC3)c(CC)c2)c1 [B2L076-01, N-tert-Butylsulfonyl-6-[4-[[4-(5-ethoxypyridin-3-yl)-2-ethylphenyl]methyl]piperazin-1-yl]pyridazine-3-carboxamide] | 1.8% | −0.3% |
| CCOc1cccc(-c2ccc(CN3CCN(c4ccc(C(=O)NS(=O)(=O)C(C)(C)C)nn4)CC3)cc2F)c1 [B2L077-01, N-tert-Butylsulfonyl-6-[4-[[4-(3-ethoxyphenyl)-3-fluorophenyl]methyl]piperazin-1-yl]pyridazine-3-carboxamide] | 0.0% | 0.0% |
| CCOc1cncc(-c2ccc(CN3CCN(c4ccc(C(=O)NS(=O)(=O)C(C)(C)C)nn4)CC3)cc2F)c1 [B2L078-01] | 1.1% | −0.7% |
| CCOc1cccc(-c2cc(CN3CCN(c4ccc(C(=O)NS(=O)(=O)C(C)(C)C)nn4)CC3)cc(OCC)c2)c1 [B2L081-01, N-tert-Butylsulfonyl-6-[4-[[3-ethoxy-5-(3-ethoxyphenyl)phenyl]methyl]piperazin-1-yl]pyridazine-3-carboxamide] | 0.0% | 0.0% |
| CCOc1cncc(-c2cc(CN3CCN(c4ccc(C(=O)NS(=O)(=O)C(C)(C)C)nn4)CC3)cc(OCC)c2)c1 [B2L082-01, N-tert-Butylsulfonyl-6-[4-[[3-ethoxy-5-(5-ethoxypyridin-3-yl)phenyl]methyl]piperazin-1-yl]pyridazine-3-carboxamide] | 2.6% | −1.2% |
| CCOc1cccc(-c2cc(CN3CCN(c4ccc(C(=O)NS(=O)(=O)C(C)(C)C)nn4)CC3)cc(OC(C)C)c2)c1 [B2L083-01, N-tert-Butylsulfonyl-6-[4-[[3-(3-ethoxyphenyl)-5-propan-2-yloxyphenyl]methyl]piperazin-1-yl]pyridazine-3-carboxamide] | 0.0% | 0.0% |
| CCOc1cncc(-c2cc(CN3CCN(c4ccc(C(=O)NS(=O)(=O)C(C)(C)C)nn4)CC3)cc(OC(C)C)c2)c1 [B2L084-01, N-tert-Butylsulfonyl-6-[4-[[3-(5-ethoxypyridin-3-yl)-5-propan-2-yloxyphenyl]methyl]piperazin-1-yl]pyridazine-3-carboxamide] | −3.0% | −1.9% |
